According to patent US12357711B2, “PSMA binding dual mode radiotracer and therapeutic” (Technische Universität München, priority 2019, dated 2025):

Tested on: SCID mice
Assay: Preclinical dosimetry from biodistribution in mice, extrapolated to 70-kg Standard Adult (OLINDA/EXM 1.0)
Type: in vivo
Conditions: […] bladder voiding interval
Protocol: 3-5 mice were injected per timepoint with a mean 25.6±3.6 MBq of 18F-rhPSMA-7 and 28.5±4.8 MBq of 18F-rhPSMA-7.3, respectively. Mice, severe combined immunodeficiency (SCID) were used for the experiments.
Mice were sacrificed at the following timepoints: • ^18F-rhPSMA-7: 10, 20, 40, 60, 120 and 180 minutes after administration. • ^18F-rhPSMA-7.3: 10, 60, 120, 180 and 300 minutes after administration.
Urine, blood, heart, lung, spleen, pancreas, liver, stomach (emptied), small intestine (emptied), large intestine (emptied), kidneys, bladder, testis, fat, muscle (partial, femoral), femur, tail and brain. Urine was collected with a pipette in the CO2 gas chamber. In case of missing urination in the chamber the bladder was aspirated with an insulin syringe. Blood was withdrawn instantly after sacrifice with an insulin syringe from the heart. All other tissues and organs were dissected and transferred directly in plastic containers.
The counting rates of measurement samples were automatically corrected for decay. The radioactivity distribution ratios (unit: percentage of the injected dose (% ID) in the measurement samples were determined using the equation below. The sum of the counting rates from all measurement samples obtained from one mouse was designated as the counting rate for administrated radioactivity.
The radioactivity distribution ratio per unit weight of the measurement sample (unit: % ID/g) excluding urine and feces samples was determined by using the equation below. The weight of the measurement sample was determined by subtraction of the empty measurement container from the container including the sample.
For consistency of statistical calculations for each radiotracer the same number of time-points for ^18F-rhPSMA-7 and ^18F-rhPSMA-7.3 was used. Therefore, for ^18F-rhPSMA-7 the 10 min and 20 min time points were combined creating a 15 min endpoint.
The time-integral of activity for the accumulation in the significant source organs (AUCs) were generated both with numerical integration and physical decay according to J Juan et al., Journal of Pharmaceutical Sciences, 1993, 82:762-763.
In brief, to calculate a human dosimetry from the biodistribution in the mice, an extrapolation was necessary to account for the differences between the animals and humans. Normal-organ radiation doses were estimated for the 70-kg Standard Adult anatomic model using time-depending organ activity concentrations (in percent of the injected dose per gram, % ID/g) and total-body activities measured in the biodistribution studies in mice.
Tissue activity concentrations in mice were converted to tissue fractional activities in the 70-kg Standard Adult using the relative fractional organ masses in the Standard Adult and the “standard” 25-gramm mouse. Time-dependent total-body activity was fit to an exponential function and the difference between the injected activity and the total-body activity was assumed to be excreted to the urine because activity concentrations in the liver and GI tracer were low at all time points studied.
Organ residence time was calculated by numerical integration using the trapezoidal rule and the rest-of-body ^18F residence times was calculated as the difference between the total-body residence time and the sum of the organ and urine residence times. The bladder contents residence time was estimated using the dynamic voiding model in the OLINDA/EXM 1.0 dosimetry software. Finally, the Standard Adult mean organ dose equivalents (in mSv/MBq) and effective dose (also in mSv/MBq) were then calculated using OLIN DA/EXM 1.0.
Final calculation of radiation absorbed dose and dosimetry from biodistribution in mice: The tissues or organs in which a significant accumulation of radioactivity occurs (i.e., source organ) were kidney, spleen, lung, liver and heart. With respect to activity accumulation and clearance, a rapid clearance from blood and clearance to urine but relatively slow build-up in kidney was found.

## [^19F][^natGa]D/L-Dap-R/S-DOTAGA-rhPSMA7 [rhPSMA7-rac]
  Adrenals ED Cont.: 3.90E−05 mSv/MBq
  Adrenals EDE Cont.: 0.00E000 mSv/MBq
  Adrenals dose Alpha: 0.00E000 mSv/MBq
  Adrenals dose Beta: 1.95E−03 mSv/MBq
  Adrenals dose Photon: 5.85E−03 mSv/MBq
  Adrenals dose Total: 7.80E−03 mSv/MBq
  Brain ED Cont.: 2.24E−05 mSv/MBq
  Brain EDE Cont.: 0.00E000 mSv/MBq
  Brain dose Alpha: 0.00E000 mSv/MBq
  Brain dose Beta: 1.95E−03 mSv/MBq
  Brain dose Photon: 2.54E−03 mSv/MBq
  Brain dose Total: 4.49E−03 mSv/MBq
  Breasts ED Cont.: 2.12E−04 mSv/MBq
  Breasts EDE Cont.: 6.36E−04 mSv/MBq
  Breasts dose Alpha: 0.00E000 mSv/MBq
  Breasts dose Beta: 1.95E−03 mSv/MBq
  Breasts dose Photon: 2.29E−03 mSv/MBq
  Breasts dose Total: 4.24E−03 mSv/MBq
  Gallbladder Wall ED Cont.: 0.00E000 mSv/MBq
  Gallbladder Wall EDE Cont.: 0.00E000 mSv/MBq
  Gallbladder Wall dose Alpha: 0.00E000 mSv/MBq
  Gallbladder Wall dose Beta: 1.95E−03 mSv/MBq
  Gallbladder Wall dose Photon: 5.54E−03 mSv/MBq
  Gallbladder Wall dose Total: 7.49E−03 mSv/MBq
  Heart Wall ED Cont.: 0.00E000 mSv/MBq
  Heart Wall EDE Cont.: 0.00E000 mSv/MBq
  Heart Wall dose Alpha: 0.00E000 mSv/MBq
  Heart Wall dose Beta: 8.82E−04 mSv/MBq
  Heart Wall dose Photon: 3.54E−03 mSv/MBq
  Heart Wall dose Total: 4.42E−03 mSv/MBq
  Kidneys ED Cont.: 3.25E−04 mSv/MBq
  Kidneys EDE Cont.: 3.91E−03 mSv/MBq
  Kidneys dose Alpha: 0.00E000 mSv/MBq
  Kidneys dose Beta: 4.70E−02 mSv/MBq
  Kidneys dose Photon: 1.80E−02 mSv/MBq
  Kidneys dose Total: 6.51E−02 mSv/MBq
  LLI Wall ED Cont.: 1.93E−03 mSv/MBq
  LLI Wall EDE Cont.: 9.66E−04 mSv/MBq
  LLI Wall dose Alpha: 0.00E000 mSv/MBq
  LLI Wall dose Beta: 1.95E−03 mSv/MBq
  LLI Wall dose Photon: 1.41E−02 mSv/MBq
  LLI Wall dose Total: 1.61E−02 mSv/MBq
  Liver ED Cont.: 2.13E−04 mSv/MBq
  Liver EDE Cont.: 0.00E000 mSv/MBq
  Liver dose Alpha: 0.00E000 mSv/MBq
  Liver dose Beta: 6.35E−04 mSv/MBq
  Liver dose Photon: 3.63E−03 mSv/MBq
  Liver dose Total: 4.27E−03 mSv/MBq
  Lungs ED Cont.: 5.16E−04 mSv/MBq
  Lungs EDE Cont.: 5.16E−04 mSv/MBq
  Lungs dose Alpha: 0.00E000 mSv/MBq
  Lungs dose Beta: 1.25E−03 mSv/MBq
  Lungs dose Photon: 3.04E−03 mSv/MBq
  Lungs dose Total: 4.30E−03 mSv/MBq
  Muscle ED Cont.: 3.84E−05 mSv/MBq
  Muscle EDE Cont.: 0.00E000 mSv/MBq
  Muscle dose Alpha: 0.00E000 mSv/MBq
  Muscle dose Beta: 1.95E−03 mSv/MBq
  Muscle dose Photon: 5.73E−03 mSv/MBq
  Muscle dose Total: 7.68E−03 mSv/MBq
  Osteogenic Cells ED Cont.: 8.93E−05 mSv/MBq
  Osteogenic Cells EDE Cont.: 2.68E−04 mSv/MBq
  Osteogenic Cells dose Alpha: 0.00E000 mSv/MBq
  Osteogenic Cells dose Beta: 4.18E−03 mSv/MBq
  Osteogenic Cells dose Photon: 4.75E−03 mSv/MBq
  Osteogenic Cells dose Total: 8.93E−03 mSv/MBq
  Ovaries ED Cont.: 3.09E−03 mSv/MBq
  Ovaries EDE Cont.: 3.87E−03 mSv/MBq
  Ovaries dose Alpha: 0.00E000 mSv/MBq
  Ovaries dose Beta: 1.95E−03 mSv/MBq
  Ovaries dose Photon: 1.35E−02 mSv/MBq
  Ovaries dose Total: 1.55E−02 mSv/MBq
  Pancreas ED Cont.: 4.04E−05 mSv/MBq
  Pancreas EDE Cont.: 0.00E000 mSv/MBq
  Pancreas dose Alpha: 0.00E000 mSv/MBq
